“Also recorded” adds a separate entry of the source.
What was measured:
hES cells [1] = assay: Proliferation assay, 3H thymidine incorporation; assay type: cell-based, human; conditions: on laminin, 16 hours pulse, n=4
Description: Proliferation assay to quantify rates of proliferation under different culture conditions: Cells were cultured in 6 well plates on laminin in the presence of either FGF2-supplemented CM from feeder layers or activin A, KGF, NIC, or a combination of these 3 factors. Cultures were pulsed with 1 μCi/ml [methyl ^3H] thymidine (specific activity 6.7 Ci/mmol; MP Biomedicals, Irvine Calif.; www.mpbio.com) in newly replenished medium. After 16 hours, cells were harvested and thymidine incorporation into cells was quantified as previously described.^23 Briefly, DNA content was measured fluoremetrically, and incorporation of ^3H thymidine was determined by liquid scintillation counting of trichloracetic acid precipitates of the sonicated cells. Statistical significance of observed differences was determined by analysis of variance and Fischer's protected least significance difference test with a 95% level as the limit of significance using Statview IV (Abacus Concepts, Berkeley Calif.).

HSF6 cells [2] = assay: Follistatin added to HSF6 cells on mEFs (immunohistochemistry, RT-PCR); assay type: cell-based, human; conditions: on mEFs with follistatin
Description: (§1) Stem cell culture: hES cell line HSF6 was maintained on mitomycin C treated CF1 mouse feeder layers (mEF) at 37° C., 5% CO2 in DSR medium, which consisted of high glucose DMEM containing knockout serum replacer, glutamine, non-essential amino acids, 0.1 mM β-mercaptoethanol (all from Gibco, Carlsbad, Calif.; www.invitrogen.com) as previously described,^19 or on laminin (20 μg/ml, Chemicon, www.chemicon.com) coated dishes or in DSR containing 50 ng/ml human recombinant Activin A (ACT A), 50 ng/ml human recombinant Keratinocyte Growth Factor (KGF), both from Preprotech Inc. (Rocky Hill N.J.; www.preprotech.com). These concentrations were determined from previous experiments with human fetal pancreatic cell culture.^14, 20 In some experiments, 10 ng/ml human recombinant Bone Morphogenetic Protein 4 (BMP-4; R&D Systems Minneapolis, Minn. www.RnDSystems.com) was used to replace ACT A, and 0.4 μg/ml follistatin (R&D Systems) was added to ES cells grown on mEFs, sufficient to neutralize 50 ng/ml Act A according to the manufacturer's directions. Medium was changed every day on cells grown on mEFs and every other day, on cells grown on laminin with the growth factors. Cells were passaged weekly at 1:3 or 1:4 dilution.
In some experiments, 10 ng/ml human recombinant Bone Morphogenetic Protein 4 (BMP-4; R&D Systems Minneapolis, Minn. www.RnDSystems.com) was used to replace activin A, and 2 μg/ml recombinant mouse FS-288 follistatin (R&D Systems) was added to ES cells grown on mEFs, sufficient to neutralize 50 ng/ml activin A according to manufacturer's directions. Medium was changed every day on cells grown on mEFs or in CM and every other day, on cells grown on laminin with the growth factors. Cells were passaged weekly at 1:3 or 1:4 dilution by gentle treatment with 1 mg/ml Collagenase IV (Gibco BRL) for 5 minutes, followed by scraping.
Immunohistochemistry: Stem cell cultures were grown on coverslips coated with mEFs or laminin fixed with 4% paraformaldehyde and stained. Protein expression of the stem cell markers TRA-1-60 and Oct-4 was analyzed by immunohistochemistry using primary mouse anti-TRA-1-60 (Chemicon) and rabbit anti-OCT-4 antiserum (a generous gift from Dr Hans Scholer, U Penn). Control slides were incubated with mouse IgM and rabbit IgG. […]
Alternatively, hES cell cultures were grown on coverslips coated with mEFs or laminin, fixed with 4% paraformaldehyde and immunostained as previously described.^4 Protein expression of the stem cell markers TRA-1-60, SSEA-4 and Oct-4 was analyzed using primary mouse anti-TRA-1-60 IgM (Chemicon) mouse anti-SSEA-4 IgG3 (DSHB, U of Iowa, Iowa City, Iowa), and rabbit anti-Oct-4 antiserum (a generous gift from Dr Hans Scholer, U Penn). […]

TGFβ = conditions: cited from earlier work
activin A = target: T1, activin A (Homo sapiens, UniProt P08476); conditions: cited from earlier work
T1 sequence (P08476 311-426): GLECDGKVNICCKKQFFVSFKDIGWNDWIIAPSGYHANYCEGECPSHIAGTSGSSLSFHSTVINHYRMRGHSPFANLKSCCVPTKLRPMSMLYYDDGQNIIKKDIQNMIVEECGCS

[3] = test system: members of the BMP family; conditions: cited from earlier work
Smad2 = assay: Western blotting for phosphorylated Smad2; assay type: cell-based, human; conditions: HSF6 cells grown in the presence of Activin A
Description: Western blotting: Western blotting was used for phosphorylated Smad2, and was performed on lysates of HSF6 cells as previously described.^4 Cells cultured in the presence of activin A were lysed in detergent containing buffer supplemented with vanadate (10 μM) and microcystin (1 μM) and first blotted with phospho-Smad2 (ser465/467) antibody (Cell Signaling, cellsignal.com). Blots were then stripped and reprobed with Smad2 antibody (Cell Signaling).

HSF6 cells [4] = assay: Immunohistochemistry of stem cell markers in hES cells grown on laminin; assay type: cell-based, human; conditions: NK and A for 1 week
Description: as §1
(§2) Alternatively, hES cell line HSF6 was maintained on mitomycin C treated CF1 mouse feeder layers (mEF) at 37° C., 5% CO2 in DSR medium as previously described^4. […]

hES cell line HSF6 = assay: Long-term feeder-free culture and passaging in the undifferentiated state; assay type: cell-based, human
Description: as §1
Alternatively, hES cell line HSF6 was maintained on mitomycin C treated CF1 mouse feeder layers (mEF) at 37° C., 5% CO2 in DSR medium as previously described^4. For the experiments described here, passage 43 hES cells were cultured on laminin (20 μg/ml, Chemicon, www.chemicon.com) coated dishes in the presence of conditioned medium from mEFs (CM) supplemented with 10 ng/ml basic fibroblast growth factor (FGF2; Preprotech Inc. Rocky Hill N.J.; www.preprotech.com), or on laminin in DSR medium containing 50 ng/ml human recombinant activin A, 50 ng/ml human recombinant KGF, both from Preprotech, and 10 mM Nicotinamide (NIC; Sigma Corp, St Louis Mo.). […]

HSF6 cells [5] = assay: Flow cytometric analysis of TRA-1-60 cell-surface antigen expression; assay type: cell-based, human; conditions: activin removed from the culture for 1 week (NIC+KGF remain)
Description: Alternatively, hES cell line HSF6 was maintained on mitomycin C treated CF1 mouse feeder layers (mEF) at 37° C., 5% CO2 in DSR medium as previously described^4. For the experiments described here, passage 43 hES cells were cultured on laminin (20 μg/ml, Chemicon, www.chemicon.com) coated dishes in the presence of conditioned medium from mEFs (CM) supplemented with 10 ng/ml basic fibroblast growth factor (FGF2; Preprotech Inc. Rocky Hill N.J.; www.preprotech.com), or on laminin in DSR medium containing 50 ng/ml human recombinant activin A, 50 ng/ml human recombinant KGF, both from Preprotech, and 10 mM Nicotinamide (NIC; Sigma Corp, St Louis Mo.).
Flow cytometric analysis: Flow cytometry was used to quantify undifferentiated cells under different culture conditions. Cells were harvested using a 60 minute collagenase treatment followed by shearing into a single cell suspensions and filtering using a 70 micron cell filter. Single cells from each condition were labeled with mouse anti TRA-1-60 or mouse IgM (for controls) and FITC-conjugated donkey anti-mouse IgM (Jackson Immunoresearch). Cells were analyzed using a Becton Dickinson FACScan, and cell-surface antigen expression quantitated using CellQuest software.

hES cells [6] = assay: Semi-quantitative RT-PCR of stem cell markers in hES cells grown on laminin; assay type: cell-based, human; conditions: 1 week for NK and BMP-4 (10 ng/ml, replacing activin A)
Description: as §1, §2

Molecule: NC(=O)c1cccnc1 [NIC, nicotinamide, reference compound]
- proliferation rate (3H thymidine incorporation) (hES cells [1]): intermediate

Molecule: follistatin
- expression of oct-4 and nanog, RT-PCR (HSF6 cells [2]; 1 week): absent (nanog) or markedly diminished (oct-4)
- staining for TRA-1-60 and Oct-4 (immunohistochemistry) (HSF6 cells [2]; 1 week): lost staining for TRA-1-60 (cytoplasmic), with reduced staining for Oct-4
- expression of oct-4 and nanog, RT-PCR (HSF6 cells [2]; 2 weeks): completely lost
- staining for Oct-4 (immunohistochemistry) (HSF6 cells [2]; 2 weeks): Oct-4 immunoreactivity had completely disappeared
- binding to TGFβ (TGFβ): does not bind
- affinity for activin A (activin A): extremely high affinity
- affinity for members of the BMP family [3]: lower affinity

B1: Activin A: human recombinant Activin A, TGFβ family member; homodimer of inhibin beta-A chain (protein)
chain: GLECDGKVNICCKKQFFVSFKDIGWNDWIIAPSGYHANYCEGECPSHIAGTSGSSLSFHSTVINHYRMRGHSPFANLKSCCVPTKLRPMSMLYYDDGQNIIKKDIQNMIVEECGCS
- Smad2 phosphorylation (Smad2): showing phospho-Smad 2
- staining for TRA-1-60 and Oct-4 / phenotype (immunohistochemistry) (HSF6 cells [4]): no change in phenotype
- proliferation rate (3H thymidine incorporation) (hES cells [1]): significantly reduced
- concentration optimal to maintain the cells in an undifferentiated state (hES cell line HSF6; dose response at 5, 50 and 100 ng/ml): 50 ng/mL
- continued growth and passaging (hES cell line HSF6; on laminin): could not be passaged further
- passages of continuous growth in the undifferentiated state (hES cell line HSF6; on laminin, without feeder layers, conditioned medium or STAT3 activation): at least 10 passages
- percentage of cells expressing TRA-1-60 after removal of activin (HSF6 cells [5]): 3.9%

B2: BMP-4: human recombinant Bone Morphogenetic Protein 4, another TGFβ family member, used to replace activin A (protein, UniProt P12644 293-408, looked up)
Bone morphogenetic protein 4: SPKHHSQRARKKNKNCRRHSLYVDFSDVGWNDWIVAPPGYQAFYCHGDCPFPLADHLNSTNHAIVQTLVNSVNSSIPKACCVPTELSAISMLYLDEYDKVVLKNYQEMVVEGCGCR
- expression of stem cell markers oct-4, nanog (telomerase), RT-PCR (hES cells [6]): loss of expression for nanog, oct-4, and telomerase; also recorded: complete loss of expression for nanog and oct-4

From patent publication US20090155218A1, “COMPOSITIONS AND METHODS FOR GROWTH OF EMBRYONIC STEM CELLS” (priority 2004, published 2009)
